The target of test [1] is dopamine receptor D1 (DRD1) (Homo sapiens, UniProt P21728). The conditions noted are these: 1 μg DRD1 plasma membranes, 15 min induction (FIG. 10).
Protocol: Plasma membranes (1 μg of protein in 25 μl of Stimulation Buffer) and 10 μM GDP were added to the wells of a 96-well plate and incubated at room temperature for 10 minutes. Twenty microliters of each compound dilution was added to specific wells. Induction was carried out for 15 minutes at room temperature followed by addition of 40 μl of PKA/Substrate Reagent. The reactions were allowed to incubate for an additional 20 minutes at room temperature followed by addition of 80 μl of Kinase-Glo™ Reagent. Luminescence was read 10 minutes after addition of the Kinase-Glo™ Reagent and output was recorded as relative light units (RLU) and plotted against forskolin concentration using GraphPad Prism® Software Version 4.0.
A further test deals with phosphodiesterase PDE V (Homo sapiens, UniProt O76074). As to the kind of experiment: cGMP-PDE (PDE V) activity in the presence of inhibitor, PKA/Kinase-Glo luminescence. In kind it is biochemical. The conditions noted are these: 15 U PDE V, cGMP substrate, 30 min (FIG. 7B). (In general: Kinase-Glo measures the ATP left after a reaction by luminescence.)
Test [2] has as its target T1, Holoenzyme-R-II α protein kinase A (Homo sapiens, UniProt P13861).
T1 construct: purchased BIAFFIN GmbH & Co., Kassel, Germany
As to the kind of experiment: Side by side titration of cAMP and cGMP for activation of PKA. In kind it is biochemical. The conditions noted are these: FIG. 6. On the procedure: Two-fold serial dilutions of cAMP and cGMP (initial concentration of both 40 μM) were made in Stop Buffer without ATP and IBMX, but supplemented with 2 μM ATP. Twenty-five μl of the dilutions were aliquoted into white 96-well plates, followed by the addition of 25 μl of a PKA/substrate reagent containing 100 ng/well Holoenzyme-R-II α protein kinase A, 20 μM Kemptide, 40 mM Tris HCl pH 7.5, 20 mM MgCl2, and 0.1 mg/ml BSA. The reactions were allowed to incubate for 20 min. at room temperature, and 50 μl of Kinase-Glo™ Reagent was added followed by an additional 10 min. incubation. Luminescence was measured 10 min. after addition of the Kinase-Glo™ Reagent and output was recorded as RLUs (n=2) and plotted against cyclic nucleotide (cNMP) concentration using GraphPad Prism® Software Version 4.0.

The source of these data is patent US10781472B2, “Systems and methods for determining cyclic nucleotide concentration and related pathway activation” (PROMEGA CORPORATION, priority 2005, dated 2020).

Chain of dopamine receptor D1 (DRD1) (P21728 whole entry): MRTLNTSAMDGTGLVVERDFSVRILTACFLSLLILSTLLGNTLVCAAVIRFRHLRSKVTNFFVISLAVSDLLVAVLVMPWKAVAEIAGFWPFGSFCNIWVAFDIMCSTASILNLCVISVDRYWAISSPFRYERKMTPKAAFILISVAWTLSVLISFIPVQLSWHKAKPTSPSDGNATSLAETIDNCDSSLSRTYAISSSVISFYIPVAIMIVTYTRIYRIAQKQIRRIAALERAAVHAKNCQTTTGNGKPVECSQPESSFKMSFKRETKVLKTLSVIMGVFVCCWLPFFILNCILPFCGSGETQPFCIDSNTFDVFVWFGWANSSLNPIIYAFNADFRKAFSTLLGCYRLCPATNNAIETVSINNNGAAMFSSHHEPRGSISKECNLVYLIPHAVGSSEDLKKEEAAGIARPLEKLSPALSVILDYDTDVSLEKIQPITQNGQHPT
T1 sequence (P13861 whole entry): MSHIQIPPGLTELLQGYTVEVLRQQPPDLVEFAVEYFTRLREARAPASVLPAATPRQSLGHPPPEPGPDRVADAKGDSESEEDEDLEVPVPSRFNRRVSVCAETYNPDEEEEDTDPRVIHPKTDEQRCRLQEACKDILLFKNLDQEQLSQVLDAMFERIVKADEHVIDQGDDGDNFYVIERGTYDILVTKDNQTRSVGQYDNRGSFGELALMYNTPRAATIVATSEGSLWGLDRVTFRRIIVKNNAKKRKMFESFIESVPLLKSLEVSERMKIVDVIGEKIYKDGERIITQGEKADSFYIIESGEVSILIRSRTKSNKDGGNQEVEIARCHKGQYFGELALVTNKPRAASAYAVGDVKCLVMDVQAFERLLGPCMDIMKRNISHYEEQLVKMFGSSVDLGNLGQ
Protocol for phosphodiesterase PDE V: A two-fold serial dilution of Zaprinast (20 μM) was made in Stop Buffer without IBMX and ATP, supplemented with 10 μM cGMP. An enzyme solution containing PDE V was also made so that every 12.5 μl of the enzyme solution contained 15 U (Stop Buffer without IBMX and ATP) of the enzyme. An aliquot (12.5 μl) of each dilution was added to the reaction wells and an equal amount of the phosphodiesterase PDEV enzyme solution was added to start the reaction. The plate was incubated for 30 min. at room temperature, followed by addition of 12.5 μl of Stop Buffer supplemented with 1.5 mM IBMX and 4 μM ATP to stop the reaction. An equal volume of a PKA/substrate reagent containing 100 ng/well Holoenzyme-R-II α protein kinase A, 40 μM Kemptide, 40 mM Tris HCl pH 7.5, 20 mM MgCl2, and 0.1 mg/ml BSA was added to each well, the plate was incubated for an additional 20 min., and 50 μl of Kinase-Glo™ Reagent was added.

With `Oc1cc2c(cc1O)C(c1ccccc1)CNCC2` (stereo not drawn) [SKF38393, 1-Phenyl-2,3,4,5-tetrahydro-(1H)-3-benzazepine-7,8-diol], in test [1], the “luminescent signal as agonist concentration increases (DRD1 activation)” value is reported as “luminescent signal decreases”.

As for `CCCOc1ccccc1-c1nc2nn[nH]c2c(=O)[nH]1` [Zaprinast], on phosphodiesterase PDE V, the “relative light units as inhibitor amount increases (PDE V inhibition)” value is given as “relative light units decrease”.

As for `Nc1nc2c(ncn2[C@@H]2O[C@@H]3COP(=O)(O)O[C@H]3[C@H]2O)c(=O)[nH]1` [cGMP, guanosine 3′, 5′cyclic monophosphate], the “binding to regulatory subunits of PKA, affinity relative to cAMP” value in test [2] was “lower affinity than that of cAMP”.
